What was measured:
[1] = test system: MES-SA human uterine cells; experiment: Proliferation of MES-SA cells with BSO and GdTex (MTT); type: cell-based; conditions: Homo sapiens, MES-SA; absence of GdTex, highest (50 μM) concentration tested, ca. 72 hours; read-out: inhibitory effect of BSO alone
Description: The proliferation of MES-SA human uterine cells grown in McCoys 5A medium in the presence of a thiol depleting agent (BSO) or GdTex was used to assess the combined effect of these agents. The protocol outlined in the previous example was followed, with the following changes:
1. The serially diluted compound was 200 μM BSO (Sigma Chemical, St. Louis, Mo., catalogue no. G1404).
2. The cells were allowed to incubate in the presence of the two drugs for ca. 72 hours, prior to exchange of media and analysis using the colorimetric (MTT) assay, as described, e.g., in Example 5.

MES-SA cells [2] = experiment: Response of MES-SA cells to ionizing radiation, microtiter plate format (MTT); type: cell-based, human; conditions: BSO 0 to 100 μM and higher, data not shown
Description: The response of MES-SA cells to ionizing radiation was studied using the microtiter plate format to confirm radiation sensitization potential. This assay is used to assess rapidly the effects of irradiation under a variety of conditions.
10A. Materials and Methods. MES-SA cells were incubated at 37° C. and allowed to adhere to 96-well microtiter plates (1000 cells per well) overnight in 160 μL McCoys 5A containing 10% FBS (Gibco-BRL) and ca. 2% penicillin/streptomycin solution (Sigma). BSO or media (20 μL) was added, respectively to test and control wells, 24 h prior to irradiation. Metallotexaphyrin complex (up to 100 μM) was added to the test wells to give a final volume of 200 μL, 18-24 h prior to irradiation. Plates were irradiated using a 137Cs irradiator (Model 40 Gammacell, J. L. Shepherd & Assoc., San Fernando, Calif.) at a dose rate of 33.25 Rad/min. A lead brick (2″ diameter) was positioned to protect a column of wells (no. 11) from ionizing radiation. Plate absorbances were normalized to shielded wells to allow plate-to-plate comparison. […] Reversing the position of texaphyrin complex-containing wells had no effect on assay outcome. Medium was exchanged immediately after irradiation, and plates were incubated an additional 120 h prior to analysis for viability using the MTT assay (as described, e.g., in Example 5).

MES-SA cells [3] = experiment: Radiation sensitization by clonogenic assay; type: cell-based, human; conditions: 50 μM GdTex or 100 μM BSO for 24 h prior to irradiation, ascorbate-containing medium
Description: The response of MES-SA cells to ionizing radiation was studied using a clonogenic assay format to confirm radiation sensitization potential.
Materials and Methods. MES-SA cells (200 to 5,000 cells per dish) were plated in T-25 flasks in 8.5 mL McCoys 5A containing 10% FBS (Gibco-BRL) and ca. 2% penicillin/streptomycin solution (Sigma) and incubated at 37° C. overnight. Stock BSO, ascorbate, GdTex (or a control 5% mannitol) solutions were prepared and 0.5 mL of each added to each flask to give a final volume of 10 mL (final concentrations of BSO, ascorbate and GdTex were 100 μM, 5 μM and 50 μM, respectively) and the cells incubated for 24 hr, whereupon the flasks were irradiated using a 137Cs irradiator (Model 40 Gammacell, J. L. Shepherd & Assoc., San Fernando, Calif.) at a dose rate of 0.805 Gy/min. Medium was removed immediately after irradiation, the cells were washed with fresh medium (5.0 mL) followed by the addition of fresh medium (10 mL) and incubation for an additional 11 days. Colonies were fixed and stained with 1% crystal violet and then counted.

[4] = test system: EMT-6 mouse mammary sarcoma cells; experiment: Proliferation of EMT-6 cells with NADPH and texaphyrin (MTT); type: cell-based; conditions: NADPH at or below 1000 μM, absence of texaphyrin
Description: (§1) 5A. Materials and Methods. MES-SA cells were allowed to adhere to (4) 96-well microtiter plates (4000 cells per well) overnight in 160 μL RPMI medium. Stock ascorbate 3.0 mM in medium (80 μL) was serially diluted (1:3) in rows B through F (discarding the final 80 μL). Row G was used for no-ascorbate control. Stock solutions of GdTex (2 mM in 5% mannitol) diluted in medium and 5% mannitol were prepared and added to the plates to give a final volume of 200 μL in all wells. Columns 2 and 3 contained 100 μM GdTex; columns 4 and 5 contained 75 μM GdTex, columns 6 and 7 contained 50 μM GdTex; columns 8 and 9 contained 25 μM GdTex; and columns 10 and 11 contained no GdTex (all concentrations final). Final mannitol concentration was 0.25% in all wells. The plates were incubated at 37 C under a 5% CO2/95% air atmosphere. Complex-containing medium was exchanged for fresh medium after 5 hours, and plates were incubated an additional 72 hours prior to analysis for viability using the tetrazolium dye, MTT (Mosmann, T. J. Immunol. Methods 1983, 65, 55-63). In brief, 20 μL MTT dye (Sigma Chemical, St. Louis, Mo., catalogue no. M 2128, 5 mg/mL solution in phosphate buffered saline) was added to cells in media to give a final volume of 200 μL. The plates were incubated at 37° C. for ca. 2 hours, whereupon the media was removed and isopropyl alcohol (100 μL/well) was added. Plates were vortexed for ca. 3 minutes to dissolve MTT formazan, then read on a microplate reader at 560-650 nm. Plate absorbances were normalized to wells containing neither ascorbate nor GdTex to allow plate to plate comparison. Data for each concentration of GdTex and ascorbate is the average of eight wells.
The proliferation of EMT-6 mouse mammary sarcoma (Rockwell, S. C., et al., J. Natl. Cancer Inst. 1972, 49, 735-749) cells grown in RPMI-1640 medium in the presence of NADPH and motexafin lutetium was used to assess the production of hydrogen peroxide under cell culture conditions following the protocol outlined in the previous example.
The proliferation of EMT-6 mouse mammary sarcoma (Rockwell, S. C., et al., J. Natl. Cancer Inst. 1972, 49, 735-749) cells grown in RPMI-1640 medium in the presence of NADPH and GdTex was used to assess the production of hydrogen peroxide under cell culture conditions following the protocol outlined in the previous example.

[5] = test system: MES-SA human uterine cells; experiment: Proliferation of MES-SA cells with ascorbate and texaphyrin (MTT); type: cell-based; conditions: ascorbate at or below 333 μM, absence of texaphyrin
Description: The proliferation of MES-SA human uterine cells (Harker, W. G.; MacKintosh, F. R.; Sikic, B. I. Cancer Res. 1983, 43, 4943-4950) grown in RPMI-1640 medium in the presence of ascorbate or complex was used to assess the formation of hydrogen peroxide under cell culture conditions.
as §1
The proliferation of MES-SA human uterine cells grown in RPMI-1640 medium in the presence of ascorbate and LuTex was used to assess the production of hydrogen peroxide under cell culture conditions following the protocol outlined in the previous example.

CCCCS(=N)(=O)CC[C@H](N)C(=O)O (stereo partly drawn) [BSO, L-Buthionine-[S,R]-Sulfoximine, reference compound]
inhibition at 50 µM [1]: ~10% | effect of BSO on GdTex radiation sensitization (MES-SA cells [2]): dose-dependent from 0 to 100 μM, and leveled off at higher BSO concentrations | effect on clonogenic survival as a function of radiation, single agent (MES-SA cells [3]): relatively small effect on clonogenic survival

NC(=O)C1=CN([C@@H]2O[C@H](COP(=O)(O)OP(=O)(O)OC[C@H]3O[C@@H](n4cnc5c(N)ncnc54)[C@H](OP(=O)(O)O)[C@@H]3O)[C@@H](O)[C@H]2O)C=CC1 [NADPH, reference compound]
inhibitory effect on cell proliferation, NADPH alone [4]: no inhibitory effect

O=C1O[C@H]([C@@H](O)CO)C(O)=C1O [Ascorbate, ascorbic acid, reference compound]
inhibitory effect on cell proliferation, ascorbate alone [5]: no inhibitory effect

Source: US7579338B2, “Methods and compositions for treating atheroma, tumors and other neoplastic tissues” (Pharmacyclics, Inc., priority 1999, dated 2009)
